Values of other authors, collected in article PMC3580849 (Bioorganic & medicinal chemistry letters, 2011).

Test system: Human M1 fibroblasts
Settings: positive control, previously determined

Substance: H-KDLLEQKRAAVDTYC-NH2 [65–79*0401, H-Lys-Asp-Leu-Leu-Glu-Gln-Lys-Arg-Ala-Ala-Val-Asp-Thr-Tyr-Cys-NH2]
- optimal concentration for activation of NO production: 50 µM
